Test results taken from ChEMBL document CHEMBL1201862, “PubChem BioAssay data set” (2004).
Active and inactive are the calls of the source.

Legend:
[1] = target: T1, High affinity choline transporter 1 (Homo sapiens, UniProt Q9GZV3); test: CHT inhibitors, dose response, cell-based, 5-point CRC, membrane potential dye (AID 504840); assay type: functional
T1 sequence (Q9GZV3 whole entry): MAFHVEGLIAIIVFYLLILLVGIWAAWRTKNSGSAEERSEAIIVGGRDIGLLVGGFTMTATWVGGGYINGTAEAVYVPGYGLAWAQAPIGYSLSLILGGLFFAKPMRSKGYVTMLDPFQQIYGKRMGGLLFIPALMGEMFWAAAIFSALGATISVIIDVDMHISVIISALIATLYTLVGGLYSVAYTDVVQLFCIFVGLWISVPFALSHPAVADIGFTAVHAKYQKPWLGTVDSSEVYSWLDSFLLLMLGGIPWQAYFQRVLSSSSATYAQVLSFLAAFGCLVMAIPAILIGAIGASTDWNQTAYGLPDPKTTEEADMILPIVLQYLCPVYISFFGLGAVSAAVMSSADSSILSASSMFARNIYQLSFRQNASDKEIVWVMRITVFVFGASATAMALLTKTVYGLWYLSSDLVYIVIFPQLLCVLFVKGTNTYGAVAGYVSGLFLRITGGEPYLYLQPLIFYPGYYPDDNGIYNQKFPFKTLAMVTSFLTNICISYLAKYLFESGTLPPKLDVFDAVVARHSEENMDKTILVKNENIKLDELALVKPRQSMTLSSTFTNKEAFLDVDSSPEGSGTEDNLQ

[2] = HEK293T cytotoxicity, dose response, cytotoxicity control for miR-122 modulator project, cell-based, inhibitor set, cherry-pick, set 2 (AID 720697); assay type: functional
[3] = Luminescence Cell-Based Dose Retest to Confirm Inhibitors of Cancer Stem Cells. [Related pubchem assays (depositor defined):AID2717, AID2721]; assay type: functional; details: Homo sapiens
[4] = target: Eukaryotic translation initiation factor 4E (Mus musculus, UniProt P63073); test: eIF4E–eIF4G protein interaction inhibitors, dose response, biochemical, TR-FRET (AID 855); assay type: functional;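 further: potency for disrupting eIF4E binding to eIF4GI seen as loss of FRET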
[5] = target: T2, Mannose-6-phosphate isomerase (Homo sapiens, UniProt P34949); test: human PMI inhibitors, high substrate, primary screen, biochemical, fluorescence intensity, high mannose 6-phosphate (AID 1220)
T2 sequence (P34949 whole entry): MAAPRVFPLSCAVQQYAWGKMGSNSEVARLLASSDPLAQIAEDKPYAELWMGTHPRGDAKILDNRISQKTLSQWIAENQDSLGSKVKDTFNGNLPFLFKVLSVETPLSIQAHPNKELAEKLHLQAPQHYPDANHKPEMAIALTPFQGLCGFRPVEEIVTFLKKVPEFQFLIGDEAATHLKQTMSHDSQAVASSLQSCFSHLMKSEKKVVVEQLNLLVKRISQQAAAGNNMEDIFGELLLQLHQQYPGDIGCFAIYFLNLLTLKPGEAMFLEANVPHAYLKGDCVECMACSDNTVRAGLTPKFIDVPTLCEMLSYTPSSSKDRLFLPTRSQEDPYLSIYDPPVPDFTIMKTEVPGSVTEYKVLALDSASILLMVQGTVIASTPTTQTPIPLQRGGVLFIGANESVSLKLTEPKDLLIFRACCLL

[6] = LGR2 antagonists, dose response, cell-based, HEK293, CRE-luciferase reporter, cherry pick, set 2 (AID 743343); assay type: functional;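 further: transfected cells were stimulated with diluted bursicon conditioned medium after compound addition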
[7] = MC4R antagonists, dose response, counter-screen for LGR2 antagonist project, cell-based, plate reader, cherry pick (AID 743444); assay type: functional;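 further: transfected HEK 293 cells stimulated with alpha-MSH peptide; potency of inhibitors of the alpha-MSH evoked signal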
[8] = target: T3, Heat shock factor protein 1 (Mus musculus, UniProt P38532); test: HSF1 potentiators in luciferase reporter cells, confirmation, cell-based, NIH3T3, luminescence, dose retest (AID 435004); assay type: functional;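 further: stress induced by proteasome inhibitor MG132 added 30 min after compound; luciferase reporter driven by HSF1 response element in NIH3T3 cells; actives raise luminescence as potentiators of the MG132 stress response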
T3 sequence (P38532 whole entry): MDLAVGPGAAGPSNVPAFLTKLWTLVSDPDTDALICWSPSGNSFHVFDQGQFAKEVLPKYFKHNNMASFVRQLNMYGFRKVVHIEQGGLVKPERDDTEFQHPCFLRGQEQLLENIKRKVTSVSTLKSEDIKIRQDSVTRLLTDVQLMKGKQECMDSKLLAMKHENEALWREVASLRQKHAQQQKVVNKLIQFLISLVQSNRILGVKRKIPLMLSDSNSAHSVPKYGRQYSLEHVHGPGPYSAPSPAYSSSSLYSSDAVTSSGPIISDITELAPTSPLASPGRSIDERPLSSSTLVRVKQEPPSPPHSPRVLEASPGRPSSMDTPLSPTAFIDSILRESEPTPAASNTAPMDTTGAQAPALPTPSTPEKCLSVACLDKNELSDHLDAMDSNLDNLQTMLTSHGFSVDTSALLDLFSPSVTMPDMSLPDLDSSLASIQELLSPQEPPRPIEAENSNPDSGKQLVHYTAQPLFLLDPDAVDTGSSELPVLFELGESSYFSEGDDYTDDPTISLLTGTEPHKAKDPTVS

[9] = A549 cell cytotoxicity, dose response, cytotoxicity control, plate reader, cherry-pick, antagonist series (AID 743412); assay type: functional, cell-based
[10] = target: Genome polyprotein (dengue virus type 2, UniProt P29990); test: Dengue-2 NS5 methyltransferase inhibitors, primary screen, biochemical, confirmation dose response (AID 588689); assay type: functional
[11] = target: T4, Low molecular weight phosphotyrosine protein phosphatase (Homo sapiens, UniProt P24666); assay type: functional; details: read-out: IC50_Mean;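 further: Dose-response confirmation assay measuring inhibition of LMPTP enzyme activity by fluorescence intensity read-out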
T4 sequence (P24666 whole entry): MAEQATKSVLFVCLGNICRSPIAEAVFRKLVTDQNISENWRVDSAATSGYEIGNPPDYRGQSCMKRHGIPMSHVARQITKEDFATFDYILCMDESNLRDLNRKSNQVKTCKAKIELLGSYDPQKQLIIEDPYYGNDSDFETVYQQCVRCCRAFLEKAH

[12] = target: T5, Replicative DNA helicase DnaB (Mycobacterium tuberculosis, UniProt P9WMR3); test: DnaB intein splicing inhibitors, dose response, biochemical, cell-free fluorescence (AID 449749); assay type: functional
T5 sequence (P9WMR3 whole entry): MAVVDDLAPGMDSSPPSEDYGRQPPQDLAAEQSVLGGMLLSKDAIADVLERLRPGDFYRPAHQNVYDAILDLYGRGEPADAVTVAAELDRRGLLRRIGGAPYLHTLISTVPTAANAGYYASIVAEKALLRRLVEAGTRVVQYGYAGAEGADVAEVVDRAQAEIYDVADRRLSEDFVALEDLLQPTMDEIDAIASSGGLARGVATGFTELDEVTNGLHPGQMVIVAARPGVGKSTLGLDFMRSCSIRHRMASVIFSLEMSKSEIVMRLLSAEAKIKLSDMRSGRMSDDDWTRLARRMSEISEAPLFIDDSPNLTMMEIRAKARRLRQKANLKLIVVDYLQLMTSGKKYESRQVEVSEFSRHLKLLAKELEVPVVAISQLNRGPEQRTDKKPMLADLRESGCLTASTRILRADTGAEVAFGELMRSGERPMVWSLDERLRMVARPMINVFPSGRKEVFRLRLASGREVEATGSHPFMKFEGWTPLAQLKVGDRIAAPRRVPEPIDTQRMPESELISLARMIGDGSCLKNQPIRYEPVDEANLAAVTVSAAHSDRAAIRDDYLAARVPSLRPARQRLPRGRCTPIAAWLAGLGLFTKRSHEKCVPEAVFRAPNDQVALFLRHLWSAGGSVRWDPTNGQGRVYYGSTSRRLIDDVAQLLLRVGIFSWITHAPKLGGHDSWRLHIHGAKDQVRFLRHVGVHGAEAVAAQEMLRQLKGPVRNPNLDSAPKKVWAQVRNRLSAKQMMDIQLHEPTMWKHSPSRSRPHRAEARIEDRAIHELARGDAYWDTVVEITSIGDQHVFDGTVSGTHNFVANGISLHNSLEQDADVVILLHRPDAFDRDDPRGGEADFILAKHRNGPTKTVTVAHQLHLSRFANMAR

[13] = target: T6, Protein RecA (Mycobacterium tuberculosis, UniProt P9WHJ3); test: Fluorescence Cell-Free Homogeneous Dose Retest to Identify Inhibitors of RecA-Intein Splicing Activity. [Related pubchem assays (depositor defined):AID2097, AID2223, AID489010, AID492950]; assay type: functional
T6 sequence (P9WHJ3 whole entry): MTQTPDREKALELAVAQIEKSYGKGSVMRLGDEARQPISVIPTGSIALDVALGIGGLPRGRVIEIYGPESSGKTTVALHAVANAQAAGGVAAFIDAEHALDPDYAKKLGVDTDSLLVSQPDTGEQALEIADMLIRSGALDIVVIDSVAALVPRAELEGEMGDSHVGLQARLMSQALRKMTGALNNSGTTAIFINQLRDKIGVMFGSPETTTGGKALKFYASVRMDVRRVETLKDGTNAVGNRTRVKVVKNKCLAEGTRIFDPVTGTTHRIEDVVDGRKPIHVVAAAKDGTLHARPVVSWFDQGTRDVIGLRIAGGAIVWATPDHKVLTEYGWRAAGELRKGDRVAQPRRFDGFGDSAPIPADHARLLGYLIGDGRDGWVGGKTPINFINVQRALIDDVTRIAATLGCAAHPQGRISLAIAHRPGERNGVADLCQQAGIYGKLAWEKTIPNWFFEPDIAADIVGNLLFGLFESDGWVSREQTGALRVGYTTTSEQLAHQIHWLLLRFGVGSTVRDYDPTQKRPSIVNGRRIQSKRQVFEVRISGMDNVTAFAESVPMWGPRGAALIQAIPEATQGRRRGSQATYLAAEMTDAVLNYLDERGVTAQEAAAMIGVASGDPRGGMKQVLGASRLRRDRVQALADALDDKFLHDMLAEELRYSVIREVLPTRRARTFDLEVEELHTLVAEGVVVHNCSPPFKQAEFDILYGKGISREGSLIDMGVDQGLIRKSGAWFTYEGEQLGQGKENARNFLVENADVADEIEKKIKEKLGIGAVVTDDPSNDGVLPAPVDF

[14] = inhibitors of SNCA 5'UTR-driven reporter translation, confirmation, H4 neuroglioma cells, luminescence (AID 1988); assay type: functional, cell-based
[15] = inhibitors of firefly luciferase expression or activity, dose response, H4 neuroglioma cells, luminescence (AID 1990); assay type: functional, cell-based
[16] = Luminescence Cell-Based Dose Response HTS to Identify Inhibitors of 5'UTR Stem-Loop Driven Prion Protein mRNA Translation in H4 Neuroglioblastoma Cells. [Related pubchem assays: 1827 (Project Summary), 1813 (Primary HTS)]; assay type: functional

Chain of Genome polyprotein (P29990 2492-3391 limits assumed): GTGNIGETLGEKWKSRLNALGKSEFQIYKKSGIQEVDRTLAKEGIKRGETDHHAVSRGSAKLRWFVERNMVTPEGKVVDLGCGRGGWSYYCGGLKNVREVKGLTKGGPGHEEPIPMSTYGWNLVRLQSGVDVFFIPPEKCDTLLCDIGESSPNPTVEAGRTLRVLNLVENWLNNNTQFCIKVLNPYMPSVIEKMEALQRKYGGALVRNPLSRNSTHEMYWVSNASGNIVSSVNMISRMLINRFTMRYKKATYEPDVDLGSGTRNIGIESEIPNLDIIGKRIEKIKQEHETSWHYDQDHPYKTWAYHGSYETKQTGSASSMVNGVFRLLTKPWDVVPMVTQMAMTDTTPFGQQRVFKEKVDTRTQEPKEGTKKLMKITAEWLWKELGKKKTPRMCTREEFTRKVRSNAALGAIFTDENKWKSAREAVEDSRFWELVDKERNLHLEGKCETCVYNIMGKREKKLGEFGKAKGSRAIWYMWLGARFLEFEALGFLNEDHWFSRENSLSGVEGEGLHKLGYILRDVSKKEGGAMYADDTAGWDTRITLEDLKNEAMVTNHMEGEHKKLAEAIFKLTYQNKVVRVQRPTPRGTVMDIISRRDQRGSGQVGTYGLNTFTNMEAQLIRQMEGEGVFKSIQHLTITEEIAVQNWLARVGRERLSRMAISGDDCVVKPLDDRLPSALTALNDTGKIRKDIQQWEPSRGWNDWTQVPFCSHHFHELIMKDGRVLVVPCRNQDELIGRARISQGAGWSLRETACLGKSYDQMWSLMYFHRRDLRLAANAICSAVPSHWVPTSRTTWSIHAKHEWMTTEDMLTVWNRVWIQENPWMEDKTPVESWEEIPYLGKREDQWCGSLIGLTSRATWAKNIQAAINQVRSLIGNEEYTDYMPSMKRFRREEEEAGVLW
Chain of Eukaryotic translation initiation factor 4E (P63073 whole entry): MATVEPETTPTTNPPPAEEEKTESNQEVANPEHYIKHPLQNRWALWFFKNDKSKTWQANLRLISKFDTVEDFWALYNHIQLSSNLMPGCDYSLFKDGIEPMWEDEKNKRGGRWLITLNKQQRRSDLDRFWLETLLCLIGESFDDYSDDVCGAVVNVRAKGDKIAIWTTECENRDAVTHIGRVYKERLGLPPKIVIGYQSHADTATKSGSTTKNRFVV

SMILES: CCc1ccc(S(=O)(=O)NCc2cn3cccc(C)c3n2)s1
- IC50 [1]: 13.8 µM (active)

SMILES: Cc1nnsc1Sc1cccc(C(F)(F)F)c1
- AC50 [2]: 8.67 µM (active)

SMILES: CCc1ccc2oc(C(=O)NCC(c3ccc(OC)cc3)N3CCCCC3)c(C)c2c1 (stereo not given)
- IC50 [1]: 2.29 µM (active)
- AC50 [3]: 3.23 µM (active)

SMILES: Nc1nc2c(s1)CCc1c-2cnn1-c1ccccc1
- IC50 [4]: > 64 µM (inactive)
- IC50 [5]: 1.42 µM (active)

SMILES: COc1ccc(C2(O)CCN(C(=O)NC3CCCCC3)CC2)cc1
- IC50 [1]: 14.5 µM (active)

SMILES: Oc1nc(CSc2ccccn2)nc2c1oc1ccccc12
- AC50 [6]: 5.23 µM (active)
- AC50 [7]: 6.77 µM (active)
- EC50 [8]: > 260 µM (inconclusive)
- AC50 [9]: > 52 µM (inactive)

SMILES: Cc1noc(NS(=O)(=O)c2ccc(NC(=O)c3ccccc3NS(=O)(=O)c3ccc(F)cc3)cc2)c1C
- IC50 [10]: 40.9 µM (active)

SMILES: COc1ccc(-c2cc(C(=O)Nc3cc(Br)ccc3O)no2)cc1
- IC50 [11]: 2.09 µM (active)

SMILES: O=C1c2ccccc2C(O)(c2ccccc2)N1c1ccc([N+](=O)[O-])cc1Cl (stereo not given)
- IC50 [10]: 60.8 µM (active)

SMILES: O=C1NC(=O)C(=Cc2c[nH]nc2-c2ccccc2)C(=O)N1
- IC50 [10]: 53 µM (active)

SMILES: C/C=C/c1ccc([C@H]2[C@@H](CO)N(C(=O)C3CC3)[C@H]2CNC(=O)NC(C)C)cc1
- AC50 [2]: 0.558 µM (active)

SMILES: COc1ccc(N2C(=O)C(Cl)=C(N3CCOCC3)C2=O)cc1
- IC50 [10]: 33.1 µM (active)
- AC50 [12]: 10.8 µM (active)
- EC50 [13]: 3 µM (active)

SMILES: Cc1ccc(C)c(C(=O)COc2ncnc3ccccc23)c1
- IC50 [1]: 15.1 µM (active)

SMILES: O=c1cc(CSc2nc(NCc3ccccc3)c3ccccc3n2)nc2ccc(Cl)cn12
- IC50 [11]: 26 µM (inactive)

SMILES: CCNC(=O)Nc1ccc2c(c1)C(=O)N(C)[C@@H]1CC[C@H](CC(=O)NCC3CC3)O[C@@H]1CO2
- AC50 [2]: 0.493 µM (active)

SMILES: Nc1c(C(=O)N/N=C/c2ccc(OCc3ccccc3)cc2)cnn1-c1ccccc1
- EC50 [14]: 11.9 µM (active)
- EC50 [15]: > 120 µM (not active)
- EC50 [16]: 21.9 µM (active)
- IC50 [11]: 25.9 µM (inactive)

SMILES: C(=C\c1nc(N2CCCC2)c2ccccc2n1)/c1ccccc1
- IC50 [11]: 8.49 µM (active)

SMILES: Oc1cc(O)c2sc(Nc3ccc(F)cc3)nc2n1
- IC50 [5]: > 50 µM (not active)

SMILES: COCCn1c(C)cc(C(=O)CSc2nnnn2C2CCCC2)c1C
- AC50 [6]: 3.39 µM (active)
- AC50 [7]: 2.78 µM (active)
